Reference: patent US10107816B2, “G-protein coupled receptor-associated diagnostics and therapeutics for B-cell chronic lymphocytic leukemia” (THE REGENTS OF THE UNIVERSITY OF CALIFORNIA, priority 2013, dated 2018)
“Also recorded” adds a separate entry of the source. Where no end group is shown, it is not given here.

Tests used:
[1] = test system: NK.tert bone marrow-derived stromal cells; assay: Stromal cell proliferation ([3H] thymidine) with conditioned media from indolent CLL cultures; assay type: cell-based, human; conditions: conditioned media from indolent CLL cells incubated 24 hr with IR284 (100 nM) or VIP
Procedure: Mononuclear cells derived from the blood of Indolent CLL patients were grown in tissue culture media (RPMI 1640+10% Heat-Inactivated Fetal Bovine Serum) and incubated for 24 hr in the absence of any drug (“untreated CLL”), in the presence of the phosphodiesterase 4/7 inhibitor IR284 (100 nM) or the VIPR agonist VIP […]. In the 24 hr incubation period products excreted from the cells in response to the treatments accumulate in the media, which is called “conditioned media” (CM). CM was harvested from the cell cultures by subjecting them to centrifugation at 233 rcf for 10 minutes at 4° C. to pellet cells and debris. The liquid portion was removed and used as CM. To assess the impact of CM from the indolent CLL cultures upon the proliferation of bone marrow-derived stromal cells (which make up the supportive microenvironment of CLL in vivo), CM was added to NK.tert bone marrow-derived stromal cells along with [3H] thymidine to assess DNA synthesis/cell proliferation

[2] = test system: normal B-cells; assay: Assay of cellular apoptosis (annexin V/PI flow cytometry) in normal B-cells; assay type: cell-based, human; conditions: normal B-cells (n=3)
Procedure: (§1) FIG. 7 illustrates apoptosis of CLL cells (data from Aggressive and Indolent CLL cells), left panel, and normal B-cells (n=3), right panel, in response to 1 μM VIP+100 nM IR284. Statistical significance, determined by Student's t-test, is shown (*=P<0.05) compared to cells treated only with 100 nM IR284.
(§2) Flow cytometry was used to detect annexin V/fluorescein isothiocyanate (FITC) and propidium iodide (PI) staining to determine the apoptotic population of treated cells. CLL-cells or normal PBMC (1,000,000/ml) in […]+10% FBS were incubated for 48 hr in standard culture conditions with or without drugs and then assayed for annexinV/PI staining per manufacturer's protocol using a FACScan (Becton Dickinson Biosciences, San Jose, Calif.) flow cytometer.

[3] = test system: CLL cells; assay: cAMP accumulation assay (cAMP radioimmunoassay); assay type: cell-based, human; conditions: aggressive CLL cells (n=8); 1 μM VIP + 100 nM IR284, relative to 100 nM IR284 alone; P<0.05
Procedure: The results are expressed relative to cAMP levels in cells treated only with 100 nM IR284, a PDE4/7 inhibitor. Statistical significance was determined by paired t test and is shown (*=P<0.05) compared to cells treated only with IR284.
(§3) Cycle thresholds (lower value denotes higher expression) normalized to 28S. Statistical significance was determined by Student's t-test and is depicted by (***) for P<0.001 compared to normal. […] Statistical significance was determined by paired t test with (*) P<0.05 compared to IR284 alone.
One million CLL-cells or normal PBMC/ml in […] buffer+10% FBS were plated in a 12-well cell culture plate and incubated for 20 min at 37° C. in air plus 5% CO2 with a dual PDE4/7 inhibitor (IR284). VIP or ACTH were then added to the 12-well culture plate and incubated for 10 min at 37° C. in air plus 5% CO2. The cells were then centrifuged at 1200 rpm for 5 min at 4° C. The media was aspirated and 50 μl of 7.5% trichloroacetic acid (TCA) was added to each cell pellet to release cAMP from the cells. The TCA-suspended sample was diluted in 1 ml 10 mM sodium acetate and acetylated with 20 ul triethylamine and 10 ul acetic anhydride. The competitive binding assay consists of 50 μl of diluted, acetylated sample, 25 μl AMP antibody and 25 μl ^125I-labeled cAMP (Perkin Elmer). […]

[4] = test system: CLL cells; assay: Assay of cellular apoptosis (annexin V/PI flow cytometry) in CLL cells; assay type: cell-based, human; conditions: for apoptosis in combination with IR284: with PDE inhibitor IR284 (100 nM), compared to IR284 alone
Procedure: as §1, §3, §2

[5] = test system: male germ cell; conditions: in vivo; cited from earlier work
[6] = molecular target: T1, LGR8 (Homo sapiens, UniProt Q8WXD0); conditions: recombinant LGR8 in 293T cells; cited from earlier work
T1 construct: expressed in transfected cells; host or cells: 293T cells

[7] = test system: LGR8; conditions: germ cells; via inhibitory G protein Gi; cited from earlier work
[8] = test system: arrested oocytes in preovulatory follicles; conditions: in vitro and in vivo; cited from earlier work
[9] = test system: CLL cells; assay: Spontaneous apoptosis of CLL cells (Annexin V surface staining); assay type: cell-based, human
Text: FIG. 12 illustrates that the peptide hormone insulin-like peptide 3 (INSL3) protects CLL cells from spontaneous apoptosis.

[10] = indolent CLL cells, with or without VIP or ACTH, with a phosphodiesterase inhibitor

T1 sequence (Q8WXD0 whole entry): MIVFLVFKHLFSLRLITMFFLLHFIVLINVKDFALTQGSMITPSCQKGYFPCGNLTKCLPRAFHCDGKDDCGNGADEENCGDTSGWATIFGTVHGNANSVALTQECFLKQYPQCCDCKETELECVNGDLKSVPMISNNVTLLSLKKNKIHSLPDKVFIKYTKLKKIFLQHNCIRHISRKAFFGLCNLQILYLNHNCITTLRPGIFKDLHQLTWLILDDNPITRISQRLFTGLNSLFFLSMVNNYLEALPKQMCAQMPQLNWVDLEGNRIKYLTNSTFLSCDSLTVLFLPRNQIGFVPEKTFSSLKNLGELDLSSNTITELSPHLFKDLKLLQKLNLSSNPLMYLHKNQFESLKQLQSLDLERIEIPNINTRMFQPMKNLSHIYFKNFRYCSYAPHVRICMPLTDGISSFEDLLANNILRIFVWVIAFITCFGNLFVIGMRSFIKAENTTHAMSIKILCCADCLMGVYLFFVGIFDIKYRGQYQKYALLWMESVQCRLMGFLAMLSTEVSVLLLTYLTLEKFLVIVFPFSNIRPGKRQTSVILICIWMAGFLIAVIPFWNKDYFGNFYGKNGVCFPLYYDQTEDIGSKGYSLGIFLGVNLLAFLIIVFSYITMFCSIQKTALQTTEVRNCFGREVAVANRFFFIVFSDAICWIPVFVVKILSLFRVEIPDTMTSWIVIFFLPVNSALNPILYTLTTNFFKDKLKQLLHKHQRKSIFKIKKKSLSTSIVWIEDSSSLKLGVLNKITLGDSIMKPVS

Row | Molecule | proliferation of stromal cells (DNA synthesis) [1] | apoptosis ([4]; aggressive CLL cells, 48 hr) | apoptosis in combination with IR284 ([4]; aggressive CLL cells) | apoptosis [4, 10] | other results
1 | COc1ccc(C2=NN(C3CCN(C(=O)N4CCOCC4)CC3)C(=O)C3CC=CCC23)cc1Cl (stereo not shown) [IR284, (4-(3-chloro-4-methoxyphenyl)-2-(1-morpholine-4-carbonyl)piperadin-4-yl)-4a, 5,8,8a-tetrahydrophthalazin-1(2H)-one] | suppressed proliferation | – | – | – | –
2 | VIP: vasoactive intestinal peptide receptor agonist, purchased from Tocris Bioscience (HSDAVFTDNYTRLRKQMAVKKYLNSILN; ends and bridges not checked; UniProt P01282 125-152, looked up) | suppressed proliferation | increases apoptosis; also recorded: promote apoptosis | significantly enhanced; also recorded: increase apoptosis | not indolent CLL | apoptosis [2]: does not promote apoptosis; cAMP accumulation [3]: significantly enhanced; apoptosis ([4]; CLL cells, P<0.05, n=3): induced apoptosis
3 | ACTH: a melanocortin 2 receptor [MC2R] agonist, purchased from GenWay (SYSMEHFRWGKPVGKKRRPVKVYPNGAEDESAEAFPLEF; Corticotropin; UniProt P01189 138-176, looked up) | – | promote apoptosis | increase apoptosis | not indolent CLL | –
4 | INSL3: peptide hormone insulin-like peptide 3, LGR8 agonist (peptide, UniProt P51460 21-55; P51460 106-131, looked up) Insulin-like 3 B chain: LGPAPTPEMREKLCGHHFVRALVRVCGGPRWSTEA Insulin-like 3 A chain: AAATNPARYCCLSGCTQQDLLTLCPY | – | – | – | – | male germ cell apoptosis [5]: suppresses male germ cell apoptosis; adenylyl cyclase activation / intracellular cAMP [6]: increases accumulation of intracellular cAMP; cAMP production [7]: decreases in cAMP production; meiotic progression of arrested oocytes [8]: initiates meiotic progression; protection from apoptosis [9]: protects CLL cells from programmed cell death
